Measured values taken from paper PMC10608021, “Angiotensin-I-Converting Enzyme (ACE)-Inhibitory Peptides from the Collagens of Monkfish (Lophius litulon) Swim Bladders: Isolation, Characterization, Molecular Docking Analysis and Activity Evaluation” (Marine Drugs, 2023).
Like-named read-outs stand apart in the source and are kept apart here.

How the values were obtained:
ACE [1] = molecular target: T1, ACE (Homo sapiens, UniProt P12821); conditions: cited from earlier work
Procedure: To illustrate the ACEi mechanism of MHP6, MHP7 and MHP9, a molecular docking assay was conducted (Figure 7), and the affinities of MHP6, MHP7 and MHP9 with ACE were −7.3, −10.9 and −9.4 kcal/mol, respectively, which were similar to those of ACEi peptides from miiuy croakers (IKSW: −9.3 kcal/mol), M. edulis (LSFR: −8.5 kcal/mol), rice bran (YSK: −7.9 kcal/mol), tuna milts (YEGDP: −8.8 kcal/mol) and soybean (LVLL: −8.6 kca ...

HUVECs [2] = assay: Viability of HUVECs (MTT); format: cell-based, Human; conditions: for Cell viability of HUVECs: 400 µM; for Viability of HUVECs, result in words: 400 μM, 24 h, versus control and other concentration groups, p < 0.05
Procedure: (§1) HUVECs were cultured in DMEM at 37 °C in a humidified 5% CO2 atmosphere, and the DMEM contained penicillin (100 U/mL), FBS (10%, v/v) and streptomycin ([…]). After 24 h, the cells were used for follow-up experiments.
The MTT method was employed to detect the viability of HUVECs incubated with MHP6, MHP7 and MHP9 [38]. In brief, HUVECs were seeded in 96-well plates and cultured for 24 h. Subsequently, HUVECs were separately treated with MHP6, MHP7 and MHP9 (100, 200, 300 or 400 μM) at 37 °C. After 24 h, MTT was added into the cell culture to reach a final concentration of 2 mg/mL. After 4 h, DMSO was added into each well and the absorbance at 490 nm was determined. Cell viability was calculated according to the following formula:Cell viability (%) = (Asample/Acontrol) × 100(2)

[3] = test system: HUVECs, endothelin-1 (ET-1) level; assay: ET-1 production in HUVECs (assay kit); format: cell-based, Human; conditions: for ET-1 content in NE-treated HUVECs: peptide 300 μM + NE (0.5 μM), NE alone 69.58 ± 3.11 pg/mL; for ET-1 content in HUVECs, result in words: peptide at 100–300 μM
Procedure: as §1
(§2) After treatment with ACEi peptides (MHP6, MHP7 and MHP9, respectively) for 24 h, the NO and ET-1 content in the HUVECs was separately determined according to their assay kits as per manufacturers’ protocol.

ACE [4] = molecular target: T1, ACE; assay: ACEi activity (FAPGG substrate); format: biochemical; conditions: 1.5 mg/mL; FAPGG (3 mM) substrate, ACE 1.25 mU, 37 °C, 0.5 h incubation, HPLC at 228 nm; mean ± SD, n = 3
Procedure: The ACEi activity of PSC-MH, fractions and peptides (MHP1-MHP12) was determined by using FAPGG as a substrate. Briefly, the initial volume was made up of a 50 µL volume of FAPGG (3 mM), ACE (1.25 mU) and the sample solution, respectively. These solutions were first preheated at 37 °C for 0.5 h […], and mixed and incubated for an additional 0.5 h. After that, 150 µL of glacial acetic acid was added to the solution to inactivate ACE. After that, the content of hippuric acid (HA) in the reaction mixture produced from the substrate reactions catalyzed by ACE was determined using HPLC at 228 nm. In short, using an isocratic system (pH 3.0) made up of 12.5% (v/v) acetonitrile in deionized water, the amount of free HA was evaluated using an HPLC system (Agilent 1200, Agilent Ltd., Santa Clara, CA, USA) on a Zorbax SB C-18 column (4.6 × 250 mm, 5 µm). The sample (10 µL) was eluted at a flow rate of 1.0 mL/min, and the absorbance at 228 nm was monitored to obtain the measurement. A total of 50 µL of PBS buffer, used as the sample substitute, was added into the control reaction mixture. ACEi activity was calculated as follows: ACEi activity (%) = [(HA control − HA sample)/HA control] × 100%(1)

[5] = test system: HUVECs, nitric oxide (NO) level; assay: NO production in HUVECs (assay kit); format: cell-based, Human; conditions: for NO content in NE-treated HUVECs: peptide 300 μM + NE, NE alone 21.34 ± 1.24 µM; for NO content in NE-treated HUVECs / NO production level in HUVECs / NO level in HUVECs: mean ± SD, n = 3; for NO production level in HUVECs: peptide 300 μM, 24 h, without NE; for NO production level in HUVECs / NO level in HUVECs: control 35.01 ± 1.38 µM; for NO content in HUVECs, result in words: treatment with peptide
Procedure: as §1, §2

HUVECs [6] = conditions: cited from earlier work; for ET-1 secretion and NO generation in HUVECs: peptide from tuna roes, ref [31]; for NO and ET-1 production in HUVECs: ref [73]
Excerpt: (§3) In addition, ET-1 is a known vasoconstriction factor, similar to Ang II, that can result in endothelial dysfunction associated with high blood pressure and atherosclerosis.

[7] = test system: Nrf2 and heme oxygenase-1 (HO-1) proteins in HUVECs; conditions: oxidative damage, ref [73]; cited from earlier work
Excerpt: as §3

[8] = peptide 300 μM, 24 h, without NE, control 54.87 ± 2.57 pg/mL, mean ± SD, n = 3

T1 sequence (P12821 30-1306, species assumed): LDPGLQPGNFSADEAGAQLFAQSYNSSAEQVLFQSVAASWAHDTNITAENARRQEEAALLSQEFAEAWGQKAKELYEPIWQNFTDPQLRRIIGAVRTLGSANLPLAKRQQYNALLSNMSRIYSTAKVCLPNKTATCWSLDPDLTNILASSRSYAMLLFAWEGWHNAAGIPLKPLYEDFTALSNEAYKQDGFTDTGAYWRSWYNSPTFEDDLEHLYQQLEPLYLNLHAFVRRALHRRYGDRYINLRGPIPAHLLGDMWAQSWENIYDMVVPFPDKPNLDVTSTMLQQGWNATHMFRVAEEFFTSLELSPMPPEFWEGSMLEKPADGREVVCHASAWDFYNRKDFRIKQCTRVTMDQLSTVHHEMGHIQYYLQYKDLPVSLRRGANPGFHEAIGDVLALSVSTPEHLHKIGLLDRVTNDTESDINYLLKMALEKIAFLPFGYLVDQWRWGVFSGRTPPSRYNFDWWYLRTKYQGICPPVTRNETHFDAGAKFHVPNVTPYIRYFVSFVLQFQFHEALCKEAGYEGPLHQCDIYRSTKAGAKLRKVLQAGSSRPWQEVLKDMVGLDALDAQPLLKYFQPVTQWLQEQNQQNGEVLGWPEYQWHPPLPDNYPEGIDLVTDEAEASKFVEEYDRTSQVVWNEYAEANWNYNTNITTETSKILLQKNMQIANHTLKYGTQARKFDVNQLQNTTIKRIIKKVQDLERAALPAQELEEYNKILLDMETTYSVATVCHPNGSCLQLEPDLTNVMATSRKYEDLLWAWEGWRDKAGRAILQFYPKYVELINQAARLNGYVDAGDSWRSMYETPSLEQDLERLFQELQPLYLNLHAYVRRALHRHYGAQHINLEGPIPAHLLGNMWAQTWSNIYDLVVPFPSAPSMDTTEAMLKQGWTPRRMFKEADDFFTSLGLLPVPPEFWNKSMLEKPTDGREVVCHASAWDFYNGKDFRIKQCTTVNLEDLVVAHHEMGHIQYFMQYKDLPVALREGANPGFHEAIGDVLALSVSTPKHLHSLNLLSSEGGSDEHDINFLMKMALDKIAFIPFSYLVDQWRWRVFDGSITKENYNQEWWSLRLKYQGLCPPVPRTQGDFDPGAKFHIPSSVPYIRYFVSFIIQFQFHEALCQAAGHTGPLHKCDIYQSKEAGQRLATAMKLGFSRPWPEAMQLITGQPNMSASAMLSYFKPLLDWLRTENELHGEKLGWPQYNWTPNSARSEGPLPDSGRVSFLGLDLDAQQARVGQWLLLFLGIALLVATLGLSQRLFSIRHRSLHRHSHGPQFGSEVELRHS

LVLL [ACEi peptide from soybean]
Affinity with ACE (ACE [1]; peptide from soybean, ref [72]): -8.6 kcal/mol

H-FDGPY-OH [MHP7, Phe-Asp-Gly-Pro-Tyr]
Cell viability of HUVECs (HUVECs [2]): 90.39 ± 3.19%
Viability of HUVECs, result in words (HUVECs [2]): might lead to some adverse harm to the function of HUVECs
ET-1 content in NE-treated HUVECs ([3]; p < 0.001, mean ± SD, n = 3): 61.23 ± 1.89 pg/mL
ET-1 content in HUVECs [3, 8]: 43.87 ± 1.73 pg/mL
ET-1 content in HUVECs, result in words ([3]; p < 0.001): significantly reduce the ET-1 content in HUVECs
ACEi activity (ACE [4]): 84.99 ± 2.34%
NO content in NE-treated HUVECs ([5]; p < 0.001): 26.31 ± 1.22 µM
NO production level in HUVECs [5]: 48.91 ± 2.35 µM
NO content in HUVECs, result in words [5]: significantly increased

C[C@H](CS)C(=O)N1CCC[C@H]1C(=O)O [Cap, captopril, reference compound]
ET-1 level in HUVECs ([3]; Cap 1.0 μM, control 54.87 ± 2.57 pg/mL, mean ± SD, n = 3): 32.25 ± 1.26 pg/mL
NO level in HUVECs ([5]; Cap treatment): 56.18 ± 2.58 µM

H-SPGPW-OH [MHP9, Ser-Pro-Gly-Pro-Trp]
Cell viability of HUVECs (HUVECs [2]): 91.76 ± 3.22%
Viability of HUVECs, result in words (HUVECs [2]): might lead to some adverse harm to the function of HUVECs
ET-1 content in NE-treated HUVECs ([3]; p < 0.001, mean ± SD, n = 3): 58.44 ± 2.34 pg/mL
ET-1 content in HUVECs [3, 8]: 42.18 ± 2.09 pg/mL
ET-1 content in HUVECs, result in words ([3]; p < 0.001): significantly reduce the ET-1 content in HUVECs
ACEi activity (ACE [4]): 85.39 ± 3.46%
NO content in NE-treated HUVECs ([5]; p < 0.001): 29.87 ± 1.34 µM
NO production level in HUVECs [5]: 49.83 ± 0.96 µM
NO content in HUVECs, result in words [5]: significantly increased

WSPGF [from tuna roes]
ET-1 secretion and NO generation in HUVECs (HUVECs [6]): significantly bring down ET-1 secretion and improve the NO generation in HUVECs

IKSW [ACEi peptide from miiuy croakers]
Affinity with ACE (ACE [1]; peptide from miiuy croakers, ref [31]): -9.3 kcal/mol

NC[C@H](O)c1ccc(O)c(O)c1 [NE, norepinephrine, reference compound]
ET-1 content in HUVECs ([3]; NE 0.5 μM, control 54.87 ± 2.57 pg/mL, p < 0.001, mean ± SD, n = 3): 69.58 ± 3.11 pg/mL
NO level in HUVECs ([5]; NE treatment, p < 0.001): 21.34 ± 1.24 µM

IVTNWDDMEK
Expression levels of Nrf2 and HO-1 proteins [7]: positively regulate the expression levels of Nrf2 and heme oxygenase-1 (HO-1) proteins
NO and ET-1 production in HUVECs (HUVECs [6]): regulate NO and ET-1 production in a concentration-dependent manner

VGPAGPRG
Expression levels of Nrf2 and HO-1 proteins [7]: positively regulate the expression levels of Nrf2 and heme oxygenase-1 (HO-1) proteins
NO and ET-1 production in HUVECs (HUVECs [6]): regulate NO and ET-1 production in a concentration-dependent manner

LSFR
Affinity with ACE (ACE [1]; peptide from M. edulis, ref [30]): -8.5 kcal/mol

YEGDP
Affinity with ACE (ACE [1]; peptide from tuna milts, ref [32]): -8.8 kcal/mol

WGESF [from tuna roes]
ET-1 secretion and NO generation in HUVECs (HUVECs [6]): significantly bring down ET-1 secretion and improve the NO generation in HUVECs

H-SEGPK-OH [MHP6, Ser-Glu-Gly-Pro-Lys]
Cell viability of HUVECs (HUVECs [2]): 91.27 ± 2.64%
Viability of HUVECs, result in words (HUVECs [2]): might lead to some adverse harm to the function of HUVECs
ET-1 content in NE-treated HUVECs ([3]; p < 0.001, mean ± SD, n = 3): 57.62 ± 1.95 pg/mL
ET-1 content in HUVECs [3, 8]: 40.35 ± 1.96 pg/mL
ET-1 content in HUVECs, result in words ([3]; p < 0.001): significantly reduce the ET-1 content in HUVECs
ACEi activity (ACE [4]): 86.34 ± 3.25%
NO content in NE-treated HUVECs ([5]; p < 0.001): 31.24 ± 1.29 µM
NO production level in HUVECs [5]: 51.68 ± 2.38 µM
NO content in HUVECs, result in words [5]: significantly increased
